# Assay results published in publication PMC5607274, “An iterative compound screening contest method for identifying target protein inhibitors using the tyrosine-protein kinase Yes” (Scientific Reports, 2017).
# Biological target: T1, human recombinant Yes [a.a. 2–543 (end)] (Homo sapiens, UniProt P07947)
# T1 construct: human recombinant Yes [a.a; 2–543 (end)]; purchased BPS Bioscience 40488
# Assay: ADP-Glo kinase assay, inhibition rates of Yes phosphorylation activity (first and second screening)
# Assay type: biochemical
# Conditions: first screening; mean of n = 4 wells; 10 μmol L−1 compound
# Method in brief: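 Hits from a first pass were rescreened after re-dissolution from fresh powder. The first pass reported the mean inhibition rate of quadruplicate wells per compound. Activity was that of recombinant human Yes [a.a. 2–543] kinase, read out with the ADP-Glo ADP-detection method.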
# T1 sequence (P07947 2-543): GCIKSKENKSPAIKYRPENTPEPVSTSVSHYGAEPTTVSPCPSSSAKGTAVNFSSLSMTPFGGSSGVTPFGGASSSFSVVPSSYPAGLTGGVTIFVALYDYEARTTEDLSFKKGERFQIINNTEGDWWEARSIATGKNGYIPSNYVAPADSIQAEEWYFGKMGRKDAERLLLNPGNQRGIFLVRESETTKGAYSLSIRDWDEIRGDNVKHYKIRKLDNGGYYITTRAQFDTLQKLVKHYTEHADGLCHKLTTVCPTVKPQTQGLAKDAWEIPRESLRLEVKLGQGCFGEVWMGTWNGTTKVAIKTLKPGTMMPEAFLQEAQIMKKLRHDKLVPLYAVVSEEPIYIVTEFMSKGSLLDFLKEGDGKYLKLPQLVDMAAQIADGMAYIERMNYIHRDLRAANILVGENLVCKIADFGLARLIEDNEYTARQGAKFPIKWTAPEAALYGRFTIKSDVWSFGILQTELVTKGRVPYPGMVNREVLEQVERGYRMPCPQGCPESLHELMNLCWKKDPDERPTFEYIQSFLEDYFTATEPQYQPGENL
row,Structure (SMILES),First screening IR (inhibition rate) [%]
1,N#Cc1cnc(NCCC(=O)N2CCc3sccc3C2)c(Cl)c1 [Compound Z1039090738],2
2,Cc1oc(-c2ccsc2)nc1CC(=O)Nc1cc(C(N)=O)n(C)c1 [Compound Z1039455578],2
3,Cn1ccc2c(NC(=O)NCc3ccnc(N4CCCC4)c3)cccc21 [Compound Z1040576806],-8
4,Cc1nc2n(n1)CC(NCc1cn[nH]c1-c1ccc(C)o1)CC2 (centres unmarked) [Compound Z1051950052],20
5,CN(C)C(=O)Cn1cc(NC(=O)c2ccc3cc[nH]c3c2)cn1 [Compound Z1067269008],-5
6,Cn1cc(NC(=O)C2(c3cccc(C(F)(F)F)c3)CC2)cn1 [Compound Z1068296272],25
7,c1cc(-c2nc3c(c(N4CCCC(N5CCCC5)C4)n2)CCC3)ccn1 (centres unmarked) [Compound Z1070397714],56
8,Cc1cccc(-c2nc(C(C)C)no2)c1NC(=O)CCc1ccccc1 [Compound Z1082320758],4
9,CCN(CC)S(=O)(=O)c1ccc(N2CCC(NC(C)C)CC2)c([N+](=O)[O-])c1 [Compound Z1082766798],8
10,CCN(c1cccnc1)S(=O)(=O)c1cc(S(C)(=O)=O)ccc1Cl [Compound Z1082836308],-7
11,CN(C1CCCCC1)S(=O)(=O)N1CCS(=O)(=O)CC1 [Compound Z1082836720],-4
12,Cc1cccc(=O)n1CCCCNc1cnc2ccccc2n1 [Compound Z1084012684],10
13,CCOCCCn1c(NC(=O)c2ccc3c(c2)CCN3C(C)=O)nc2ccccc21 [Compound Z1090594860],-9
14,c1cncc(-c2nc(SCc3nc4ccccc4o3)n[nH]2)c1 [Compound Z1095448120],-2
15,CC1CCCN(Cc2ccc(CNCC3CNc4ccnn4C3)cc2)C1 (centres unmarked) [Compound Z1097879141],-4
16,Cc1nc(-c2cc(C(=O)N3CCCC(n4ccnc4)C3)co2)cs1 (centres unmarked) [Compound Z1102775620],-5
17,CCN(CCC#N)S(=O)(=O)c1cccc(S(C)(=O)=O)c1 [Compound Z1116704440],-6
18,COCCN(CCC#N)S(=O)(=O)c1ccccc1S(C)(=O)=O [Compound Z1116705979],42
19,COc1ccc(-c2n[nH]c(CNC(=O)C3=NN(C)C(=O)CC3)n2)cc1 [Compound Z1119644111],4
20,CC(C)c1nnc(CNC(C)(C)c2ccc(Cl)cc2)o1 [Compound Z1120830695],17
21,CN(C)C(=O)Sc1ccc(NC(=O)COc2ccc(F)cc2)cc1 [Compound Z1126778415],-17
22,Cc1cccc(OCC(=O)Nc2ccc(SC(=O)N(C)C)cc2)c1 [Compound Z1126778839],-6
23,Cc1cc(N(Cc2cn3ccsc3n2)C(C)C)ccc1C(N)=O [Compound Z1127155490],-7
24,CCN1CCCN(S(=O)(=O)c2ccccc2S(C)(=O)=O)CC1 [Compound Z1127188257],43
25,Cc1ccc(C)c(CS(=O)(=O)CCCS(=O)(=O)N(C)C)c1 [Compound Z1127660495],12
26,CN(C)S(=O)(=O)CCCS(=O)(=O)Cc1cccc(F)c1 [Compound Z1127660834],6
27,CN(C)S(=O)(=O)CCCS(=O)(=O)Cc1ccc(Cl)cc1 [Compound Z1127660880],-4

row,Structure (SMILES),First screening IR (inhibition rate) [%]
1,O=C(Nc1n[nH]c(-c2ccccn2)n1)c1ccc(-n2cccn2)c(F)c1 [Compound Z1128365659],4
2,O=C(CCN1CCCC1=O)Nc1ccc(Oc2ccc(F)cc2)cn1 [Compound Z1129155203],-12
3,CNc1snc(C)c1C(=O)NC(C)c1sc(-c2ccc(F)cc2)nc1C (centres unmarked) [Compound Z1129440199],29
4,CC(C)(C)OC(=O)N1CCCc2cc(NC(=O)c3cnc[nH]3)ccc21 [Compound Z1131596340],1
5,Cc1ccc(S(=O)(=O)CCCS(=O)(=O)N(C)C)c(C)c1 [Compound Z1134191614],-1
6,CN(C)S(=O)(=O)CCCS(=O)(=O)c1nccn1C [Compound Z1134191724],22
7,Oc1c(Br)cccc1CNCc1ncc(-c2ccccc2)o1 [Compound Z1135283259],-4
8,N#Cc1cccc(C(=O)NCc2nc(-c3ccc(F)cc3)n[nH]2)c1 [Compound Z1137567528],55
9,Cn1ncc2c(N3CCOC(Cn4cccn4)C3)ncnc21 (centres unmarked) [Compound Z1139215576],18
10,Cc1nc(C)n(C2CCCN(C(=O)CCn3ccnc3)C2)n1 (centres unmarked) [Compound Z1139343408],0
11,CC(C)c1nc2n(n1)CC(NCc1cc(-c3cccs3)on1)CC2 (centres unmarked) [Compound Z1139411735],-5
12,CCc1nnc2n1CCN(CC(=O)NC1CCCc3ccccc31)C2 (centres unmarked) [Compound Z1139436344],-6
13,Cn1cc(CNC2CCc3ncnn3C2)c(-c2ccncc2)n1 (centres unmarked) [Compound Z1139562831],22
14,Cc1cccc(-c2[nH]ncc2CNC(C)C(C)n2cccn2)c1 (centres unmarked) [Compound Z1143064210],-7
15,CSc1sc(NC(=O)c2n[nH]c(C(C)C)c2Br)nc1C [Compound Z1143428685],3
16,Cc1cc(S(C)(=O)=O)c(C)c(S(=O)(=O)N2CCCCCC2)c1 [Compound Z1145185709],6
17,Cc1cc(S(C)(=O)=O)c(C)c(S(=O)(=O)N2CCCC(C)C2)c1 (centres unmarked) [Compound Z1145185785],14
18,C=CCN(CC=C)S(=O)(=O)c1cc(C)cc(S(C)(=O)=O)c1C [Compound Z1145185872],4
19,CCN(CCC#N)S(=O)(=O)c1cc(C)cc(S(C)(=O)=O)c1C [Compound Z1145197816],-2
20,CN(C)S(=O)(=O)c1ccc(CS(=O)(=O)C2CCCC2)o1 [Compound Z1147565999],-1
21,CCC(C)NC(=O)c1ccc2c(=O)n(CC(C)C)c3nnc(SCC(=O)Nc4ccccc4C)n3c2c1 (centres unmarked) [Compound Z1157725045],-8
22,CCC(C)NC(=O)c1ccc2c(=O)n(CC(C)C)c3nnc(SCC(=O)Nc4cccc(C)c4)n3c2c1 (centres unmarked) [Compound Z1157725046],0
23,O=C(CCc1nnc2n(Cc3ccc(Cl)cc3)c(=O)c3ccccc3n12)NCCCN1CCOCC1 [Compound Z1157834172],-1
24,CCC(Sc1nc2ccccc2c2nc(CCN3CCCCC3)nn12)C(=O)Nc1ccc2c(c1)OCO2 (centres unmarked) [Compound Z1157834229],-8
25,CCSc1cncc(N2CCC(C(=O)NC(C)C(C)C)CC2)n1 (centres unmarked) [Compound Z1168201963],4
26,CC(C)NC(=O)N1CCCCCC1C1CCN(c2ncc(C(N)=O)cc2Cl)CC1 (centres unmarked) [Compound Z1168219830],13
